Data from paper PMC5520944 (Cell Death & Disease, 2017).
Like-named read-outs stand apart in the source and are kept apart here.

How the values were obtained:
Assay in all cases: cells
L929sAhFas [1] = tested on: L929sAhFas; set-up: high-content necroptosis screen, percentage PI-positive nuclei as percent of DMSO plus stimulus control
From the text: To identify novel inhibitors or regulators of necroptosis, 500 small compounds from libraries targeting autophagy, kinases, phosphatases, proteases and redox balance were screened for their ability to block TNF-induced necroptosis in murine L929sAhFas cells. Three conditions were used to induce necroptosis in L929 cells: TNF alone, TNF+TAK1 inhibitor (TAK1i) and TNF+zVAD-fmk, a pan-caspase inhibitor. Inhibition of TAK1 or caspases sensitizes to necroptosis.[13], [32] Necroptosis, measured as the percentage of PI-positive nuclei normalized to the plate-specific DMSO control, was determined for each compound (Supplementary Figure 1A). […] After compound treatment, L929sAhFas (a) or L929 (b) cells were stimulated with mTNF (T), mTNF+Tak1i (TiT) or mTNF+zVAD (zVT) (Supplementary Figure 1A and B). (a) Cell death percentage (% PI-positive nuclei) or cell loss was calculated as percent of control (DMSO+stimulus). […] (b) Cell loss (luminescence-based readout for ATP) was calculated as percent of control (DMSO+stimulus). […] In stimulated conditions, % PI-positive nuclei was determined as % of DMSO control. Data represent mean values±S.E.M. of two independent experiments. Cells were stained with Hoechst and PI and percentage PI-positive nuclei was determined using high-content image analysis (BD pathway Bioimager). (d) L929sAhFas cells were treated with Sorafenib (concentration as indicated) for 24 h. Then, stimulus was removed, 50 cells/condition seeded and colonies counted with crystal violet staining after 10 days incubation. […] Schemes of workflow screening assays in L929 cell lines. (A) Scheme of the workflow of a high-content screening assay on L929sAhFas cells using mTNF (T) and mTNF+Tak1i ((5Z)-7-Oxozeaenol) (TiT) to induce necroptotic cell death. Nec-1 and zVAD-fmk were used as protective and sensitizing benchmarks, respectively, on all plates. (B) Scheme of the workflow of a CellTiter-Glo luminescent cell viability screening assay on L929 cells using mTNF+zVAD (zVT) to induce necroptotic cell death. Supplementary Figure S2. Z’ calculation for cell death screening assays in L929 cells. (A) Z’ calculation for cell death screening assay (Fig. 1A) in mTNF-stimulated L929sAhFas cells. (B) Z’ calculation for cell death screening assay (Fig. 1A) in L929sAhFas cells stimulated with mTNF + Taki.

L929sAhFas [2] = tested on: L929sAhFas; set-up: high-content necroptosis screen, percentage PI-positive nuclei as percent of DMSO plus stimulus control; settings: mTNF-induced cell death, validation screen; read-out: Validation screen IC50 (µM) (TNF)
From the text: To identify novel inhibitors or regulators of necroptosis, 500 small compounds from libraries targeting autophagy, kinases, phosphatases, proteases and redox balance were screened for their ability to block TNF-induced necroptosis in murine L929sAhFas cells. Three conditions were used to induce necroptosis in L929 cells: TNF alone, TNF+TAK1 inhibitor (TAK1i) and TNF+zVAD-fmk, a pan-caspase inhibitor. Inhibition of TAK1 or caspases sensitizes to necroptosis.[13], [32] Necroptosis, measured as the percentage of PI-positive nuclei normalized to the plate-specific DMSO control, was determined for each compound (Supplementary Figure 1A). Z’ values for the TNF- and TNF+TAK1i-induced cell death assay were 0.498 and 0.919, respectively (Supplementary Figures 2A and B), indicating good assay performance. Sorafenib was identified as an effective inhibitor of both TNF- and TNF+TAK1i-induced necroptosis (Figure 1a). […] In an independent screening with 437 FDA-approved drugs and TNF+zVAD-fmk as necroptosis trigger in L929 cells (Supplementary Figure 1B), Sorafenib was also shown to be a potent inhibitor (Figure 1b). […] After compound treatment, L929sAhFas (a) or L929 (b) cells were stimulated with mTNF (T), mTNF+Tak1i (TiT) or mTNF+zVAD (zVT) (Supplementary Figure 1A and B). (a) Cell death percentage (% PI-positive nuclei) or cell loss was calculated as percent of control (DMSO+stimulus). Green points marked by the green dotted line represent a selection of kinase inhibitors from the screening on L929sAhFas cells (Supplementary Table 1), that are only slightly protective in the TNF-stimulated condition. (b) Cell loss (luminescence-based readout for ATP) was calculated as percent of control (DMSO+stimulus). […] In stimulated conditions, % PI-positive nuclei was determined as % of DMSO control. Data represent mean values±S.E.M. of two independent experiments. Cells were stained with Hoechst and PI and percentage PI-positive nuclei was determined using high-content image analysis (BD pathway Bioimager). (d) L929sAhFas cells were treated with Sorafenib (concentration as indicated) for 24 h. Then, stimulus was removed, 50 cells/condition seeded and colonies counted with crystal violet staining after 10 days incubation. Quantification was performed using ImageJ. n=2, a representative experiment is shown Legends supplementary figures Supplementary Figure S1. Schemes of workflow screening assays in L929 cell lines. (A) Scheme of the workflow of a high-content screening assay on L929sAhFas cells using mTNF (T) and mTNF+Tak1i ((5Z)-7-Oxozeaenol) (TiT) to induce necroptotic cell death. Nec-1 and zVAD-fmk were used as protective and sensitizing benchmarks, respectively, on all plates. (B) Scheme of the workflow of a CellTiter-Glo luminescent cell viability screening assay on L929 cells using mTNF+zVAD (zVT) to induce necroptotic cell death. Supplementary Figure S2. Z’ calculation for cell death screening assays in L929 cells. (A) Z’ calculation for cell death screening assay (Fig. 1A) in mTNF-stimulated L929sAhFas cells. (B) Z’ calculation for cell death screening assay (Fig. 1A) in L929sAhFas cells stimulated with mTNF + Taki.

MEF = tested on: MEF; set-up: species or system L929sAhFas or MEF; protection from TNF-induced cell death, percentage PI-positive nuclei by high-content imaging; settings: Mus musculus
Protocol: (c,d) HT-29 and Jurkat FADD−/− cells were pretreated for 1 h with DMSO, Nec-1 or Sorafenib (concentrations as indicated) and stimulated for 6 h with 30 ng/ml hTNF, 1 μM BV6 and 30 μM zVAD (HT-29) or stimulated for 10 h with 100 ng/ml hTNF (Jurkat FADD−/−). (a-d) Data were normalized to DMSO-treated control cells and represent the mean value±S.E.M. of three independent experiments. Toxic concentrations were removed from the analysis. L929sAhFas and MEF cells were stained with Hoechst and PI and percentage PI-positive nuclei was determined using high-content image analysis (BD pathway Bioimager). For HT-29 and Jurkat FADD−/− cells, cell death was determined by PI staining and flow cytometry. […] Cell death in AML cells was determined by PI staining and flow cytometry. […] Smac mimetic BV6[34] instead of TAK1i was used as a sensitizer for testing of mouse embryonic fibroblasts (MEF) and human cell lines. […] Since Sorafenib is used to treat AML,[27] we also included two AML cell lines to investigate whether it alters the sensitivity of these cells to necroptotic stimuli (BV6 in the presence of zVAD-fmk).[34]

L929sAhFas [3] = tested on: L929sAhFas; set-up: species or system L929sAhFas or MEF; protection from TNF-induced cell death, percentage PI-positive nuclei by high-content imaging; settings: mTNF; inhibition of induced cell death
Protocol: Figure 2 Sorafenib inhibits TNF-induced RIPK1-dependent cell death in both murine and human cell lines and rescues AML cells from Smac mimetic-induced necroptosis. […] (c,d) HT-29 and Jurkat FADD−/− cells were pretreated for 1 h with DMSO, Nec-1 or Sorafenib (concentrations as indicated) and stimulated for 6 h with 30 ng/ml hTNF, 1 μM BV6 and 30 μM zVAD (HT-29) or stimulated for 10 h with 100 ng/ml hTNF (Jurkat FADD−/−). (a-d) Data were normalized to DMSO-treated control cells and represent the mean value±S.E.M. of three independent experiments. Toxic concentrations were removed from the analysis. L929sAhFas and MEF cells were stained with Hoechst and PI and percentage PI-positive nuclei was determined using high-content image analysis (BD pathway Bioimager). For HT-29 and Jurkat FADD−/− cells, cell death was determined by PI staining and flow cytometry. […] Cell death in AML cells was determined by PI staining and flow cytometry. Mean and S.D. of three independent experiments performed in triplicate are shown To confirm the inhibition of TNF-induced necroptosis by Sorafenib, we tested a panel of murine (L929sAhFas and MEF) and human cell lines (HT-29, Jurkat FADD^-/-, and two AML cell lines MV4-11 and Molm13). Smac mimetic BV6[34] instead of TAK1i was used as a sensitizer for testing of mouse embryonic fibroblasts (MEF) and human cell lines. […]

MV4-11 = tested on: MV4-11; set-up: species or system Jurkat FADD-/-, HT-29, MV4-11 or Molm13; protection from induced necroptosis, cell death by PI staining and flow cytometry; settings: Homo sapiens, BV6 + zVAD, inhibition of induced cell death
Protocol: (§1) Figure 2 Sorafenib inhibits TNF-induced RIPK1-dependent cell death in both murine and human cell lines and rescues AML cells from Smac mimetic-induced necroptosis. […] (c,d) HT-29 and Jurkat FADD−/− cells were pretreated for 1 h with DMSO, Nec-1 or Sorafenib (concentrations as indicated) and stimulated for 6 h with 30 ng/ml hTNF, 1 μM BV6 and 30 μM zVAD (HT-29) or stimulated for 10 h with 100 ng/ml hTNF (Jurkat FADD−/−). (a-d) Data were normalized to DMSO-treated control cells and represent the mean value±S.E.M. of three independent experiments. Toxic concentrations were removed from the analysis. L929sAhFas and MEF cells were stained with Hoechst and PI and percentage PI-positive nuclei was determined using high-content image analysis (BD pathway Bioimager). For HT-29 and Jurkat FADD−/− cells, cell death was determined by PI staining and flow cytometry. […] Cell death in AML cells was determined by PI staining and flow cytometry. Mean and S.D. of three independent experiments performed in triplicate are shown Supplementary materials and methods Immunoblotting. After treatments, cells were washed twice with PBS and lysed with Laemmli buffer (2x) directly or with NP-40 lysis buffer (150 mM NaCl, 1% NP-40, 10% glycerol, 10 mM Tris-HCl pH 8) supplemented with EDTA-free protease inhibitor cocktail tablets (Roche Diagnostics, Basel, Switzerland, #11873580001) and phosphatase inhibitor cocktail tablets (Roche Diagnostics, #04906837001). After lysis with NP-40 lysis buffer, lysates were kept 10 minutes on ice and centrifugated in a microcentrifuge (10 min, 13.000 rpm, 4°C). Supernatant was used for SDS-PAGE and immunoblotting. FACS analysis. FACS analysis was used to measure dying HT-29, Jurkat FADD-/- and AML cells. Treated HT-29 cells were harvested, washed with PBS and incubated with Annexin V binding buffer (BD Biosciences, 556454) containing 7-AAD and Annexin V-FITC for 15 min according to the manufacturer’s protocol. FACSCalibur^TM Flow Cytometer (BD Biosciences) and CellQuest Pro software were used to perform experiments and analyze data respectively.

Molm13 = tested on: Molm13; set-up: species or system Jurkat FADD-/-, HT-29, MV4-11 or Molm13; protection from induced necroptosis, cell death by PI staining and flow cytometry; settings: Homo sapiens, MOLM-13; BV6 + zVAD; inhibition of induced cell death
Protocol: as §1

[4] = read-out: cell death TNF/Taki (POC)

Row | Compound | activity at 10 µM (L929sAhFas [1]; read-out: cell death TNF (POC)) [%] | activity at 10 µM (L929sAhFas [1]; [4]) [%] | IC50 (L929sAhFas [2]) [µM] | IC50 (MEF; mTNF + BV6 + zVAD, inhibition of induced cell death) [nM] | IC50 (MEF; mTNF + BV6, inhibition of induced cell death) [nM] | IC50 (L929sAhFas [3]) [nM] | IC50 (MV4-11) [nM] | IC50 (Molm13) [nM]
1 | COc1cc2ncc(-c3ccccc3)nc2cc1OC [AG-1296] | 77.6 | 93.6 | 33.2 |  |  |  |  | 
2 | N#C/C(=C\c1ccc(O)c(O)c1)C(=O)NCc1ccccc1 [AG-490] | 74.2 | 97.3 | 87.3 |  |  |  |  | 
3 | CN(C)c1ccc(/C=C2\C(=O)Nc3ccccc32)cc1 [SU 4312] | 69.6 | 96.8 | 26.4 |  |  |  |  | 
4 | CN1C(=O)NC(Cc2c[nH]c3c(Cl)cccc23)C1=O (centres unmarked) [Nec-1s] |  |  |  | 630 ± 250 | 380 ± 50 | 240 ± 120 | 150 ± 10 | 280 ± 170
